By Ki is commonly meant the dissociation constant of the complex between target and ligand, obtained from inhibition or displacement.

Here are results for 29 compounds from patent US7183267B2, “β-lactamase inhibitors and methods of use thereof” (priority 2003, dated 2007).

The target of test [1] is T1, TEM-1 β-lactamase (Escherichia coli, UniProt P62593). Kind of test: TEM-1 β-lactamase inhibition assay (nitrocefin hydrolysis, 486 nm). Format: biochemical. As for the experimental part: The inhibition of TEM-1 β-lactamase was determined spectrophotometrically. B-lactamase activity was followed by measuring the hydrolysis of nitrocefin, [3-(2,4-dinitrostyryl)-(6R, 7R)-7-(2-thienylacetamido)-ceph-3-em-4-carboxylic acid, E-isomer], (Calbiochem, San Diego, Calif., USA) at 486 nm. Inhibition assays were performed at 25° C. in 50 mM sodium phosphate, 5% DMSO, pH 7.0. […] Inhibitor was added to the enzyme and incubated for ten minutes before the addition of substrate. Inhibition constants (Ki) for the inhibitors are obtained at the desired temperature and solvent conditions by measuring the rate of substrate hydrolysis at increasing amounts of inhibitors.
(§1) The competitive inhibition of β-lactamase was determined spectrophotometrically using a Varian (Walnut Creek, Calif.) Cary 100 UV-Visible spectrophotometer. β-lactamase activity was followed by measuring the hydrolysis of nitrocefin, [3-(2,4-dinitrostyryl)-(6R, 7R)-7-(2-thienylacetamido)-ceph-3-em-4-carboxylic acid, E-isomer], (Calbiochem, San Diego, Calif.) at 486 nm. Inhibition assays were performed at 25° C. in 50 mM sodium phosphate, 5% DMSO, pH 7.0. […] Penicillin G (Sigma, St. Louis, Mo.) was also used as a substrate to determine KM and kcat.
(§2) Inhibitor was added to protein and incubated for ten minutes before the addition of substrate. Inhibition constants were determined by measuring the loss of P-lactamase activity with increasing inhibitor concentrations and fitting the data to standard equations for competitive inhibition.
(§3) These methods can also be used to express and assay recombinant TEM-1 variant of β-lactamase.

Test [2] has as its target T1, TEM-1 β-lactamase. The experiment in a line: Isothermal titration calorimetry, binding to TEM-1 β-lactamase (Example 17). The following applies: ITC. As for the experimental part:
(§4) Isothermal titration calorimetry was performed on a high-precision VP-ITC titration calorimeter (Microcal Inc., Northampton, Mass.). β-Lactamase solutions were titrated with inhibitors in 50 mM sodium phosphate, 2% DMSO, pH 7.0, with β-lactamase concentrations ranging from 15 to 25 μM and inhibitor concentrations ranging from 300 to 1000 μM. The heat evolved from each injection was obtained by integrating the calorimetric signal. Heat of binding was obtained as the difference between the heat of reaction and the heat of inhibitor dilution. Data were analyzed using Origin 7.0 (OriginLab Corporation, Northampton, Mass.).
as §3
Also shown are the results obtained for β-lactamase variant TEM-1.
On the technique in general: In ITC the heat of successive injections is recorded.

In test [3] the target is T2, AmpC β-lactamase (Escherichia coli, UniProt P00811).
T2 construct: made in house; host or cells: E. coli BL21 (DE3)
The experiment in a line: AmpC β-lactamase competitive inhibition assay (nitrocefin hydrolysis). It is filed as biochemical. On the procedure: The gene for AmpC β-lactamase (accession number P00811) was obtained from Escherichia coli K12 strain W3110 (American Type Culture Collection, Rockville Md.). E. coli was grown and plasmid (F-lacIq lacPL8 ampC::lambdacI+) was isolated via Qiagen (Valencia, Calif.) mini prep. The gene for AmpC was amplified in two pieces via polymerase chain reaction, ligated and purified by agarose gel electrophoresis. The ligated gene was inserted into a pET200 vector via a TOPO reaction (Invitrogen, Carlsbad, Calif.).
BL21 (DE3) (Invitrogen) cells were transformed by heat-shock with the prepared plasmid. These cells were grown to an OD600 of 0.8 at 37° C. Isopropylthiogalactoside (IPTG) was added to 1 mM, incubation temperature decreased to 25° C. and the cells were grown for an additional 18 hours. After 18 hours, the E. coli was pelleted by centrifugation, and discarded. The growth media was concentrated and dialyzed versus 100 mM Tris, pH 7.0. This solution was run through an equilibrated Q-resin column, and washed with excess 100 mM Tris, pH 7.0.
as §1, §2

The target of test [4] is T2, AmpC β-lactamase. The following applies: binding to AmpC; ITC. As for the experimental part: as §4
Isothermal titration calorimetry was undertaken to determine the thermodynamic characteristics of binding to AmpC β-lactamase.

Setting [5] is: Ki, 25° C., 50 mM sodium phosphate, 5% DMSO, pH 7.0, enzyme 5 nM, nitrocefin 167 μM.
Where [6] appears, read: Ki from Lineweaver-Burke Analysis, values in parenthesis, Lineweaver-Burke analysis.

T2 sequence (P00811 20-377): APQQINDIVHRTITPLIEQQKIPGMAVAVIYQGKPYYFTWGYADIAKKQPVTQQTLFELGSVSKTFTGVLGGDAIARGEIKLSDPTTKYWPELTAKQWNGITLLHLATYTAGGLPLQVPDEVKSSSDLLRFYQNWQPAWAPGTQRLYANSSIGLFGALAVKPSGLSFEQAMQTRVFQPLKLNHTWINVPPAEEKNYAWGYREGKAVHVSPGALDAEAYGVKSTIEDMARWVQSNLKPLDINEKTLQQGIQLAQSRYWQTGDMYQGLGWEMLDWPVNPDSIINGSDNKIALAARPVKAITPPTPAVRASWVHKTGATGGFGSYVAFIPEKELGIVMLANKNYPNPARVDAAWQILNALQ
T1 sequence (P62593 24-286 limits assumed): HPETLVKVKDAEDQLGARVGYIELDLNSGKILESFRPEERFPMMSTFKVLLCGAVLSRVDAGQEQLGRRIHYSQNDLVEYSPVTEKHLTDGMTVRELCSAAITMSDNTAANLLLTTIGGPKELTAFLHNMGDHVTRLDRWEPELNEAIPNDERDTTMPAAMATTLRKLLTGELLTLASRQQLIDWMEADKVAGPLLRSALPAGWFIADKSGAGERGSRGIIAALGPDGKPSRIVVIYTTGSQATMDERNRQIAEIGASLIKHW

For `O=C(Oc1ccc(F)cc1)c1cc(B(O)O)cc([N+](=O)[O-])c1` [Compound (1q), 3-(4-Fluorophenoxycarbonyl)-5-nitrophenylboronic acid], at TEM-1 β-lactamase [1] (setting [5]), the affinity corresponds to a Ki of 100 ± 8 µM.

With `O=C(Oc1cccc(OC(=O)c2cc(B(O)O)cc([N+](=O)[O-])c2)c1)c1cc(B(O)O)cc([N+](=O)[O-])c1` [Compound (9a), 3-Borono-5-nitrobenzoic acid 1,3-phenylene ester], the Ki at TEM-1 β-lactamase [1] (setting [5]) came out at 16 ± 1.5 µM. Also, affinity on TEM-1 β-lactamase [1] (Ki, TEM-1 β-lactamase) was put at a Ki of 16.2 µM. For the same compound, on TEM-1 β-lactamase [2], the ΔG is -7.864 kcal/mol, the ΔH is 0.446 kcal/mol and the “−TΔS” value was -8.31 kcal/mol.

On to `O=C(Oc1ccncc1)c1cc(B(O)O)cc([N+](=O)[O-])c1` [(1r), 3-(4-pyridyloxycarbonyl)-5-nitro-phenylboronic acid], for which, on TEM-1 β-lactamase [1] (setting [5]), the Ki came to 138 ± 2.7 µM.

The compound `O=C(Oc1cccnc1Cl)c1cc(B(O)O)cc([N+](=O)[O-])c1` [Compound (1s), 3-(2-Chloro-3-pyridyloxycarbonyl)-5-nitrophenylboronic acid] displayed a Ki at TEM-1 β-lactamase [1] (setting [5]) of 42.3 ± 2.4 µM.

In the case of `O=C(OCc1cccc(B(O)O)c1)c1cc(O)cc(B(O)O)c1` [Compound (3g), 3-(3-Boronobenzyloxycarbonyl)-5-hydroxylphenylboronic acid], at AmpC β-lactamase [3], the affinity, expressed as Ki, was 2.69 µM. On AmpC β-lactamase [4], the ΔG was -7.356 kcal/mol, the ΔH was -3.677 kcal/mol and the “−TΔS” value was -3.679 kcal/mol.

On TEM-1 β-lactamase [1] (setting [5]), `OB(O)c1cccc2c1Sc1ccccc1S2` [Compound F1012] gave a Ki of 113 µM.

`CCCCOC(=O)c1cccc(B(O)O)c1` [Compound BB-1003] had an inhibition constant (Ki) at TEM-1 β-lactamase [1] (setting [5]) of 231 µM.

`O=C(Oc1cccc(B(O)O)c1)c1ccc(C(=O)Oc2cccc(B(O)O)c2)cc1` [Compound (11a), 1,4-Benzenedicarboxylic Acid, di 3-boronophenyl ester]: the Ki on AmpC β-lactamase [3] was 1.31 µM. Also, on AmpC β-lactamase [4], the ΔG is -7.548 kcal/mol, the ΔH is -3.114 kcal/mol and the “−TΔS” value was -4.434 kcal/mol.

In turn, `O=C(Oc1c(F)cccc1F)c1cc(B(O)O)cc([N+](=O)[O-])c1` [Compound (1p), 3-(2,6-Difluorophenoxycarbonyl)-5-nitrophenylboronic acid] gave a Ki on TEM-1 β-lactamase [1] (setting [5]) of 19.8 ± 1.3 µM. Besides, at TEM-1 β-lactamase [1] (Ki, TEM-1 β-lactamase), affinity was put at a Ki of 19.8 µM. On TEM-1 β-lactamase [2], the ΔG is -5.916 kcal/mol, the ΔH is -6.715 kcal/mol and the “−TΔS” value was found to be 0.799 kcal/mol.

Turning to `O=C(Oc1c(Cl)cc(Cl)cc1Cl)c1cc(B(O)O)cc([N+](=O)[O-])c1` [Compound (1y), 3-(2,4,6-Trichlorophenoxycarbonyl)-5-nitro-phenylboronic acid], on TEM-1 β-lactamase [1] (Ki, TEM-1 β-lactamase), the Ki came to 15.8 µM. Further, on TEM-1 β-lactamase [2], the ΔG was -6.55 kcal/mol, the ΔH amounted to 0 kcal/mol and the “−TΔS” value is -6.55 kcal/mol.

`CC(C)(C)OC(=O)Oc1cccc(B(O)O)c1` [Compound BB-1004] showed a Ki on TEM-1 β-lactamase [1] (setting [5]) of 297 µM.

As for `O=C(OCc1cccc2ccccc12)c1cc(B(O)O)cc([N+](=O)[O-])c1` [Compound (3e), 3-(1-Naphthalenemethoxycarbonyl)-5-nitrophenylboronic acid], the Ki at TEM-1 β-lactamase [1] (Ki, TEM-1 β-lactamase) stood at 17.1 µM. Further, at TEM-1 β-lactamase [2], the ΔG was -6.164 kcal/mol, the ΔH was found to be 0.224 kcal/mol and the “−TΔS” value is -6.388 kcal/mol.

Consider `O=C(Oc1c(Cl)cc(Cl)cc1[N+](=O)[O-])c1cc(B(O)O)cc([N+](=O)[O-])c1` [Compound (1w), 3-(2,4-Dichloro-6-nitro-phenoxycarbonyl)-5-nitro-phenylboronic acid], for which the Ki on TEM-1 β-lactamase [1] (setting [5]) is 13 ± 1.1 µM. Also, the Ki at TEM-1 β-lactamase [1] (Ki, TEM-1 β-lactamase) was 12.7 µM. Further, on TEM-1 β-lactamase [2], the ΔG was -6.409 kcal/mol, the ΔH was -4.554 kcal/mol and the “−TΔS” value was -1.855 kcal/mol.

As for `O=C(Oc1c(Cl)cccc1Cl)c1cc(B(O)O)cc([N+](=O)[O-])c1` [Compound (1n), 3-(2,6-Dichlorophenoxycarbonyl)-5-nitrophenylboronic acid], the inhibition constant (Ki) on TEM-1 β-lactamase [1] (setting [6]) is 0.62 µM. Besides, the affinity at TEM-1 β-lactamase [1] (setting [5]), expressed as Ki, was 8.8 ± 0.5 µM. On TEM-1 β-lactamase [1] (Ki, TEM-1 β-lactamase), this compound returned a Ki of 8.8 µM. For the same compound, at TEM-1 β-lactamase [2], the ΔG is -5.608 kcal/mol, the ΔH was -1.173 kcal/mol and the “−TΔS” value was -4.435 kcal/mol.

Consider `CCOC(=O)c1ccc(OC(=O)c2cc(B(O)O)cc([N+](=O)[O-])c2)cc1` [Compound (1e), 3-(4-Ethoxycarbonylphenoxycarbonyl)-5-nitrophenylboronic acid], for which the inhibition constant Ki on TEM-1 β-lactamase [1] (setting [5]) was greater than 1000 µM.

Consider `Cc1cccc(OC(=O)c2cc(B(O)O)cc([N+](=O)[O-])c2)c1` [(1m), 3-(3-Methylphenoxycarbonyl)-5-nitrophenylboronic acid], for which, at TEM-1 β-lactamase [1] (setting [5]), the affinity, expressed as Ki, was 114 ± 12 µM.

`Cc1ccccc1OC(=O)c1cc(B(O)O)cc([N+](=O)[O-])c1` [Compound (1k), 3-(2-Methylphenoxycarbonyl)-5-nitro-phenylboronic acid] returned a Ki on TEM-1 β-lactamase [1] (setting [5]) of 130 ± 18 µM.

As for `O=C(Oc1ccccc1Br)c1cc(B(O)O)cc([N+](=O)[O-])c1` [(1u), 3-(2-Bromophenoxycarbonyl)-5-nitro-phenylboronic acid], the values for the Ki on TEM-1 β-lactamase [1] (setting [6]) and on TEM-1 β-lactamase [1] (setting [5]) were 1.68 µM and 25 ± 2.5 µM, respectively.

Regarding `O=C(Oc1ccccc1)c1cc(B(O)O)cc([N+](=O)[O-])c1` [Compound (1t), 3-Phenoxycarbonyl-5-nitrophenylboronic acid], the inhibition constant Ki at TEM-1 β-lactamase [1] (setting [6]) came to 6.54 µM; on TEM-1 β-lactamase [1] (setting [5]), 95 ± 8.7 µM.

For the compound `O=C(OCc1ccccc1)c1ccc(B(O)O)cc1` [Compound F1002], on TEM-1 β-lactamase [1] (setting [5]), the Ki stood at 148 µM.

`Nc1cc(B(O)O)cc(C(=O)O)c1` [Compound (5a), 3–5-carboxylphenylboronic acid] yielded a Ki at TEM-1 β-lactamase [1] (setting [5]) of 727 ± 49 µM.

As to `O=C(OCc1cccc([N+](=O)[O-])c1)c1cc(B(O)O)cc([N+](=O)[O-])c1` [Compound (3b), 3-(3-Nitrobenzyloxycarbonyl)-5-nitrophenylboronic acid], the values for the Ki at TEM-1 β-lactamase [1] (setting [6]) and at TEM-1 β-lactamase [1] (setting [5]) were 2.76 µM and 27 ± 3.4 µM, respectively.

For the compound `O=C(OCc1cccc(Cl)c1)c1cc(B(O)O)cc([N+](=O)[O-])c1` [Compound (3c), 3-(3-Chlorobenzyloxycarbonyl)-5-nitrophenylboronic acid], the Ki at TEM-1 β-lactamase [1] (setting [6]) stood at 2.35 µM; at TEM-1 β-lactamase [1] (setting [5]) it was 25 ± 1.5 µM.

In turn, `O=C(c1cccc(B(O)O)c1)N1CCCC1` [Compound BB-1005] displayed a Ki at TEM-1 β-lactamase [1] (setting [5]) of 392 µM.

Turning to `O=C(OCc1c(Cl)cccc1Cl)c1cc(B(O)O)cc([N+](=O)[O-])c1` [Compound (3a), 3-(2,6-Dichlorobenzyloxycarbonyl)-5-nitrophenylboronic], the Ki turned out to be 4.97 µM at TEM-1 β-lactamase [1] (setting [6]) and 34 ± 2.9 µM at TEM-1 β-lactamase [1] (setting [5]).

The compound `COc1ccccc1OC(=O)c1cc(B(O)O)cc([N+](=O)[O-])c1` [Compound (1l), 3-(2-Methoxylphenoxycarbonyl)-5-nitrophenylboronic acid] yielded a Ki on TEM-1 β-lactamase [1] (setting [5]) of 116 ± 7 µM.

Compound `O=C(Oc1ccc(OC(=O)c2cc(B(O)O)cc([N+](=O)[O-])c2)cc1)c1cc(B(O)O)cc([N+](=O)[O-])c1` [Compound (2a), 3-Borono-5-nitrobenzoic acid 1,4-phenylene ester] returned a Ki on TEM-1 β-lactamase [1] (setting [5]) of 22.7 ± 1.3 µM. Further, at TEM-1 β-lactamase [1] (Ki, TEM-1 β-lactamase), the inhibitory constant (Ki) was 22.7 µM. Moreover, on TEM-1 β-lactamase [2], the ΔG is -7.451 kcal/mol, the ΔH turned out to be 0.274 kcal/mol and the “−TΔS” value was -7.725 kcal/mol.

`O=C(O)c1cc(NC(=O)c2ccccc2F)cc(B(O)O)c1` [Compound (4a), 3-(2-Fluorobenzamido)-5-carboxylphenylboronic acid] showed an inhibition constant (Ki) at TEM-1 β-lactamase [1] (setting [5]) of 143 ± 9 µM.

`O=C(Oc1ccccc1F)c1cc(B(O)O)cc([N+](=O)[O-])c1` [Compound (1o), 3-(2-Fluorophenoxycarbonyl)-5-nitrophenylboronic acid] registered a Ki at TEM-1 β-lactamase [1] (setting [5]) of 49.3 ± 4.6 µM.
